Assays:
Mus musculus [1] = test: Toxicity in Mus musculus albino (mouse) assessed as GPx activity per gram of Hb at 300 mg/kg, po for 10 days (Rvb =179.16 +/- 10.45 U/g Hb); format: organism-based; set-up: dose 300 mg/kg, route oral; settings: in vivo, 240 h
Mus musculus [2] = test: Toxicity in Mus musculus albino (mouse) assessed as SOD activity per gram of Hb at 300 mg/kg, po for 10 days (reference value: 12.7+/- 2.08 U/g Hb); format: organism-based; set-up: dose 300 mg/kg, route oral; settings: in vivo, 240 h
Mus musculus [3] = test: Toxicity in Mus musculus albino (mouse) assessed as GSH activity at 300 mg/kg, po for 10 days (reference value: 59.57 +/- 5.10 %); format: organism-based; set-up: dose 300 mg/kg, route oral; settings: in vivo, 240 h
Mus musculus [4] = test: Toxicity in Mus musculus albino (mouse) assessed as serum TBARS level at 300 mg/kg, po for 10 days (reference value: 4.35 +/- 0.86 U/l); format: organism-based; set-up: dose 300 mg/kg, route oral; settings: in vivo, 240 h
Mus musculus [5] = test: Toxicity in Mus musculus albino (mouse) assessed as serum LDH level at 300 mg/kg, po for 10 days (reference value: 217.84 +/- 13.36 U/l); format: organism-based; set-up: dose 300 mg/kg, route oral; settings: in vivo, 240 h
Mus musculus [6] = test: Toxicity in Mus musculus albino (mouse) assessed as serum gamma-glutamyl transferase level at 300 mg/kg, po for 10 days (reference value: 4.43 +/- 0.31 U/l); format: organism-based; set-up: dose 300 mg/kg, route oral; settings: in vivo, 240 h
Mus musculus [7] = test: Toxicity in Mus musculus albino (mouse) assessed as serum ALP level at 300 mg/kg, po for 10 days (reference value: 31.63 +/- 3.73 U/l); format: organism-based; set-up: dose 300 mg/kg, route oral; settings: in vivo, 240 h
Mus musculus [8] = test: Toxicity in Mus musculus albino (mouse) assessed as serum SGPT level at 300 mg/kg, po for 10 days (reference value: 35.82 +/- 5.26 U/l); format: organism-based; set-up: dose 300 mg/kg, route oral; settings: in vivo, 240 h
Mus musculus [9] = test: Toxicity in Mus musculus albino (mouse) assessed as serum SGOT level at 300 mg/kg, po for 10 days (reference value: 9.74 +/- 1.73 U/l); format: organism-based; set-up: dose 300 mg/kg, route oral; settings: in vivo, 240 h
Mus musculus [10] = test: Toxicity in Mus musculus albino (mouse) assessed as drop in temperature at extremeties at 90 to 340 mg/kg, ip; format: organism-based; set-up: dose 90-340 mg/kg, route intraperitoneal; settings: in vivo
Mus musculus [11] = test: Toxicity in Mus musculus albino (mouse) assessed as bluish toe at 90 to 340 mg/kg, ip; format: organism-based; set-up: dose 90-340 mg/kg, route intraperitoneal; settings: in vivo
Mus musculus [12] = test: Toxicity in Mus musculus albino (mouse) assessed as bluish skin at 90 to 340 mg/kg, ip; format: organism-based; set-up: dose 90-340 mg/kg, route intraperitoneal; settings: in vivo
Mus musculus [13] = test: Toxicity in Mus musculus albino (mouse) assessed as brownish eye mucus at 90 to 340 mg/kg, ip; format: organism-based; set-up: dose 90-340 mg/kg, route intraperitoneal; settings: in vivo
Mus musculus [14] = test: Toxicity in Mus musculus albino (mouse) assessed as tremor inhind limbs at 90 to 340 mg/kg, ip; format: organism-based, Limb; set-up: dose 90-340 mg/kg, route intraperitoneal; settings: in vivo
Mus musculus [15] = test: Toxicity in Mus musculus albino (mouse) assessed as general depression at 90 to 340 mg/kg, ip; format: organism-based; set-up: dose 90-340 mg/kg, route intraperitoneal; settings: in vivo
Mus musculus [16] = test: Toxicity in Mus musculus albino (mouse) assessed as rapid respiration at 90 to 340 mg/kg, ip; format: organism-based; set-up: dose 90-340 mg/kg, route intraperitoneal; settings: in vivo
Mus musculus [17] = test: Toxicity in Mus musculus albino (mouse) assessed as increase in heart rate at 90 to 340 mg/kg, ip; format: organism-based; set-up: dose 90-340 mg/kg, route intraperitoneal; settings: in vivo
Mus musculus [18] = test: Toxicity in ip dosed Mus musculus albino (mouse) assessed as mortality measured per gram body weight; format: organism-based; settings: in vivo
Mus musculus [19] = test: Anti-inflammatory activity in Mus musculus albino (mouse) assessed as inhibition of formalin-induced paw swelling at 30 mg/kg, po administered 30 min prior formalin challenge measured after 120 min post challenge (reference value: 9.83 +/- 0.071 mm/min); format: functional
Mus musculus [20] = test: Anti-inflammatory activity in Mus musculus albino (mouse) assessed as inhibition of formalin-induced paw swelling at 30 mg/kg, po administered 30 min prior formalin challenge measured after 90 min post challenge (reference value: 9.5 +/- 0.04 mm/min); format: functional
Mus musculus [21] = test: Anti-inflammatory activity in Mus musculus albino (mouse) assessed as inhibition of formalin-induced paw swelling at 30 mg/kg, po administered 30 min prior formalin challenge measured after 60 min post challenge (reference value: 9.73 +/- 0.06 mm/min); format: functional
Mus musculus [22] = test: Anti-inflammatory activity in Mus musculus albino (mouse) assessed as inhibition of formalin-induced paw swelling at 30 mg/kg, po administered 30 min prior formalin challenge measured after 30 min post challenge (reference value: 9.46 +/- 0.035 mm/min); format: functional
Mus musculus [23] = test: Toxicity in Mus musculus albino (mouse) assessed as drop in temperature at extremeties at 70 to 410 mg/kg, ip; format: organism-based; set-up: dose 70-410 mg/kg, route intraperitoneal; settings: in vivo
Mus musculus [24] = test: Toxicity in Mus musculus albino (mouse) assessed as bluish toe at 70 to 410 mg/kg, ip; format: organism-based; set-up: dose 70-410 mg/kg, route intraperitoneal; settings: in vivo
Mus musculus [25] = test: Toxicity in Mus musculus albino (mouse) assessed as bluish skin at 70 to 410 mg/kg, ip; format: organism-based; set-up: dose 70-410 mg/kg, route intraperitoneal; settings: in vivo
Mus musculus [26] = test: Toxicity in Mus musculus albino (mouse) assessed as brownish eye mucus at 70 to 410 mg/kg, ip; format: organism-based; set-up: dose 70-410 mg/kg, route intraperitoneal; settings: in vivo
Mus musculus [27] = test: Toxicity in Mus musculus albino (mouse) assessed as tremor inhind limbs at 70 to 410 mg/kg, ip; format: organism-based, Limb; set-up: dose 70-410 mg/kg, route intraperitoneal; settings: in vivo
Mus musculus [28] = test: Toxicity in Mus musculus albino (mouse) assessed as general depression at 70 to 410 mg/kg, ip; format: organism-based; set-up: dose 70-410 mg/kg, route intraperitoneal; settings: in vivo
Mus musculus [29] = test: Toxicity in Mus musculus albino (mouse) assessed as increase in heart rate at 70 to 410 mg/kg, ip; format: organism-based; set-up: dose 70-410 mg/kg, route intraperitoneal; settings: in vivo
Mus musculus [30] = test: Toxicity in Mus musculus albino (mouse) assessed as rapid respiration at 70 to 410 mg/kg, ip; format: organism-based; set-up: dose 70-410 mg/kg, route intraperitoneal; settings: in vivo
Mus musculus [31] = test: Toxicity in Mus musculus albino (mouse) assessed as drop in temperature at extremeties at 80 to 375 mg/kg, ip; format: organism-based; set-up: dose 80-375 mg/kg, route intraperitoneal; settings: in vivo

SMILES | Activity (Mus musculus [1]) [U/g Hb] | Activity (Mus musculus [2]) [U/g Hb] | Activity (Mus musculus [3]) [%] | Activity (Mus musculus [4]) [nmol/mL] | Activity (Mus musculus [5]) [U/L] | Activity (Mus musculus [6]) [U/L] | Activity (Mus musculus [7]) [U/L] | Activity (Mus musculus [8]) [U/L] | Activity (Mus musculus [9]) [U/L] | Activity (Mus musculus [18]) [millimeter/min] | Activity (Mus musculus [19]) [millimeter/min] | Activity (Mus musculus [20]) [millimeter/min] | Activity (Mus musculus [21]) [millimeter/min] | Activity (Mus musculus [22]) [millimeter/min] | also measured
CCOC(=O)c1nn2c(=O)c3ccccc3nc2n1-c1ccc(S(=O)(=O)NC(C)=O)cc1 | 177 | 14 | 58.63 | 4.02 | 215.78 | 4.51 | 28.95 | 31.24 | 10.66 | 235 | 5.95 | 6 | 6.17 | 6.37 | Activity (Mus musculus [10]): Toxic; Activity (Mus musculus [11]): Toxic; Activity (Mus musculus [12]): Toxic; Activity (Mus musculus [13]): Toxic; Activity (Mus musculus [14]): Toxic; Activity (Mus musculus [15]): Toxic; Activity (Mus musculus [16]): Toxic; Activity (Mus musculus [17]): Toxic
CC(=O)NS(=O)(=O)c1ccc(-n2c(-c3ccccc3O)nn3c(=O)c4ccccc4nc23)cc1 | 180 | 12.4 | 60.12 | 4.11 | 211.27 | 4.36 | 33.26 | 28.44 | 11.1 | 213.25 | 6.02 | 6.83 | 6.11 | 6.43 | Activity (Mus musculus [23]): Toxic; Activity (Mus musculus [24]): Toxic; Activity (Mus musculus [25]): Toxic; Activity (Mus musculus [26]): Toxic; Activity (Mus musculus [27]): Toxic; Activity (Mus musculus [28]): Toxic; Activity (Mus musculus [29]): Toxic; Activity (Mus musculus [30]): Toxic; Activity (Mus musculus [31]): Toxic
